Assay [1] deals with T1, CB1 receptors (Mus musculus, UniProt P47746). Kind of assay: Inhibition of EPSCs. It counts as cell-based. The note with it: for maximal suppression of EPSC, % of baseline: at 1 μM, mean ± S.E.M.; for pIC50: read-out: IC50 of EPSC suppression, autaptic hippocampal neurons, mean (95% CI).
Assay [2] addresses CB1 receptors (Rattus norvegicus, UniProt P20272). Kind of assay: CB1 receptor internalization in HEK293 cells stably expressing CB1. Type of assay: cell-based. The note with it: for plateau / maximal internalization in time course: 100 nM drug, up to 6 hours; for plateau / maximal internalization in time course / maximal internalization (Emax): mean ± S.E.M.; for maximal internalization (Emax) / pEC50: 2 hour treatment; for maximal internalization (Emax): at 1 μM; for pEC50: read-out: EC50 of CB1 internalization, mean (95% CI).

Assay [3] addresses T1, CB1 receptors. The note with it: at 1 μM; ref Atwood et al., 2010; cited from earlier work.

pEC50, pIC50: −log10 of the molar value. Where “and” joins values, the source holds several entries; their conditions need not be identical. Equal entries are not always repeated.

We go through five compounds from article PMC3094488 (European journal of pharmacology, 2011).

Chain of CB1 receptors (Rattus norvegicus, UniProt P20272) (P20272 whole entry): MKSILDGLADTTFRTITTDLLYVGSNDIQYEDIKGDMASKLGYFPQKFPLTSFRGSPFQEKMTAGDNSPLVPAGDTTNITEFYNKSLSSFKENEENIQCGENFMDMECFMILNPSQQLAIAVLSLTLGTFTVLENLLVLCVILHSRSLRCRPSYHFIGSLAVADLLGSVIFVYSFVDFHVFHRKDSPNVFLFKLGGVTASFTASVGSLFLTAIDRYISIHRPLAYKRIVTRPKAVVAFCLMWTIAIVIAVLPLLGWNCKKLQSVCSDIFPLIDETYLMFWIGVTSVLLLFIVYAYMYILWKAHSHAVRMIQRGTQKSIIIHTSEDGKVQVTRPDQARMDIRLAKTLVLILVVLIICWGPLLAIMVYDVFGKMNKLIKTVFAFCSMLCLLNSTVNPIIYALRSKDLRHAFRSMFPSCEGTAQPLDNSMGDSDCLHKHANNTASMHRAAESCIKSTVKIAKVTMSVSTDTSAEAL
T1 sequence (P47746 whole entry): as the sequence (P20272 whole entry) above, with E95D counted along it

`CCCCCCCC(C)(C)c1ccc([C@H]2CCC[C@@H](O)C2)c(O)c1` [CP47,497-C8]: on CB1 receptors [1], the “maximal suppression of EPSC, % of baseline” value was 51.6 ± 8.0 % of baseline and 51.6 % of baseline; the pIC50 is 7.81. For the same compound, at CB1 receptors [2], the “plateau / maximal internalization in time course” value (“plateau / maximal internalization” below) is 51.4 ± 2.2 % of basal surface levels, the “maximal internalization (Emax)” value is recorded as 52.7 ± 4.3 % of basal surface levels and the negative-log EC50 (pEC50) was 8.36.
`CCCCCn1cc(C(=O)c2cccc3ccccc23)c2ccccc21` [JWH018]: the “maximal decrease of EPSC magnitude” value at CB1 receptors [3] is on record as 48.0%. Moreover, on CB1 receptors [2], the “plateau / maximal internalization” value was 50.7 ± 2.6 % of basal surface levels, the “maximal internalization (Emax)” value is 45.2 ± 2.0 % of basal surface levels and the negative-log EC50 (pEC50) was 8.00.
Turning to `CCCCn1cc(C(=O)c2cccc3ccccc23)c2ccccc21` [JWH073], on CB1 receptors [1], the “maximal suppression of EPSC, % of baseline” value is reported as 31.5 ± 4.0 % of baseline and the pIC50 was 7.31. Moreover, on CB1 receptors [2], the “plateau / maximal internalization” value is listed as 57.5 ± 3.1 % of basal surface levels, the “maximal internalization (Emax)” value is 61.2 ± 2.5 % of basal surface levels and the negative logarithm of the EC50 (pEC50) is 7.34.
In the case of `CCCCCCCC(C)(C)c1ccc([C@H]2CCC[C@@H](O)C2)c(O)c1` [cis-CP47,497-C8], on CB1 receptors [2], the “plateau / maximal internalization” value is 48.4 ± 2.4 % of basal surface levels, the “maximal internalization (Emax)” value is 53.8 ± 2.4 % of basal surface levels and the pEC50 was 8.72.
`CCCCCCCC(C)(C)c1ccc([C@@H]2CCC[C@@H](O)C2)c(O)c1` [trans-CP47,497-C8]: at CB1 receptors [2], the “plateau / maximal internalization” value was 47.7 ± 3.1 % of basal surface levels, the “maximal internalization (Emax)” value is listed as 54.9 ± 3.7 % of basal surface levels and the negative logarithm of the EC50 (pEC50) was 8.57.
